Patent US9957265B2, “N-(2-cyano heterocyclyl) pyrazolo pyridones as janus kinase inhibitors” (Merck Sharp & Dohme Corp., priority 2013, dated 2018)

Legend:
JAK1 = JAK1 (Homo sapiens (Human), UniProt P23458); assay: Jak Biochemical HTRF Assay (JAK1); conditions: recombinant GST-tagged catalytic domain, [ATP] 31.8 μM, unit not given (compound concentrations tested given in nM)
From the text: Jak Biochemical HTRF Assay Protocol
Subsequent reagent additions employed an Agilent Bravo.

JAK2 = JAK2 (Homo sapiens (Human), UniProt O60674); assay: Jak Biochemical HTRF Assay (JAK2); conditions: read-out: JAK2 IC50, recombinant GST-tagged catalytic domain, [ATP] 8.5 μM, unit not given (compound concentrations tested given in nM)
Chain of JAK2 (O60674 849-1124): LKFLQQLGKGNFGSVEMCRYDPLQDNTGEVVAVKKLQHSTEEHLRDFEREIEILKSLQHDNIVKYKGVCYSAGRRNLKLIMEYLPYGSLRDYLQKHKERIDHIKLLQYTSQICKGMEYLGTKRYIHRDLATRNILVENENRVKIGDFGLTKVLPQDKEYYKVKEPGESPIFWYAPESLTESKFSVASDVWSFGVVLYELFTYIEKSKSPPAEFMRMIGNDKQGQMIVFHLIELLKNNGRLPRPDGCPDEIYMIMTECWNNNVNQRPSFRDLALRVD

Chain of JAK1 (P23458 875-1153): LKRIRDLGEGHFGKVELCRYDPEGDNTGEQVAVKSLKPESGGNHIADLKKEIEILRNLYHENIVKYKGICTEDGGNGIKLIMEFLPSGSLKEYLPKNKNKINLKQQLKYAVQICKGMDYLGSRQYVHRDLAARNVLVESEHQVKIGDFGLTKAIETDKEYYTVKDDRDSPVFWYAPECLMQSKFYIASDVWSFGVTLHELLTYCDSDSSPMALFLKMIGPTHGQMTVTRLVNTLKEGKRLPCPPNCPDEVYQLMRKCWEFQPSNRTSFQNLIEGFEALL

| SMILES | IC50 (JAK1) | IC50 (JAK2) |
| --- | --- | --- |
| CC(C)(C)NS(=O)(=O)c1ccc(Nc2nn([C@H]3COCC[C@@H]3C#N)c3cc[nH]c(=O)c23)cc1 [Example 1-10, N-(tert-butyl)-4-((1-((3R,4S)-4-cyanotetrahydro-2H-pyran-3-yl)-4-oxo-4,5-dihydro-1H-pyrazolo[4,3-c]pyridin-3-yl)amino)benzenesulfonamide] | 0.08 nM | 0.21 nM |
| CC(C)S(=O)(=O)c1ccc(Nc2nn([C@H]3COCC[C@@H]3C#N)c3cc[nH]c(=O)c23)cc1 [Example 1-11, (3R,4S)-3-(3-((4-(isopropylsulfonyl)phenyl)amino)-4-oxo-4,5-dihydro-1H-pyrazolo[4,3-c]pyridin-1-yl)tetrahydro-2H-pyran-4-carbonitrile] | 0.09 nM | 0.34 nM |
| CN(C(C)(C)C)S(=O)(=O)c1ccc(Nc2nn([C@H]3COCC[C@@H]3C#N)c3cc[nH]c(=O)c23)cc1 [Example 1-12, N-(tert-butyl)-4-((1-((3R,4S)-4-cyanotetrahydro-2H-pyran-3-yl)-4-oxo-4,5-dihydro-1H-pyrazolo[4,3-c]pyridin-3-yl)amino)-N-methylbenzenesulfonamide] | 0.1 nM | 0.3 nM |
| CC(C)(C)S(=O)(=O)c1ccc(Nc2nn([C@H]3COCC[C@@H]3C#N)c3cc[nH]c(=O)c23)cc1 [Example 1-13] | 0.08 nM | 0.21 nM |
| CC(C)CN1Cc2ccc(Nc3nn([C@H]4COCC[C@@H]4C#N)c4cc[nH]c(=O)c34)cc2C1 [Example 1-14, (3R,4S)-3-(3-{[2-(2-methylpropyl)-2,3-dihydro-1H-isoindol-5-yl]amino}-4-oxo-4,5-dihydro-1H-pyrazolo[4,3-c]pyridin-1-yl)tetrahydro-2H-pyran-4-carbonitrile] | 0.22 nM | 0.41 nM |
| CC(C)N1Cc2ccc(Nc3nn([C@H]4COCC[C@@H]4C#N)c4cc[nH]c(=O)c34)cc2C1 [Example 1-15, (3R,4S)-3-(3-{[2-(1-methylethyl)-2,3-dihydro-1H-isoindol-5-yl]amino}-4-oxo-4,5-dihydro-1H-pyrazolo[4,3-c]pyridin-1-yl)tetrahydro-2H-pyran-4-carbonitrile] | 0.12 nM | 0.27 nM |
| COC(=N)c1cc(Nc2nn([C@H]3COCC[C@@H]3C#N)c3cc[nH]c(=O)c23)ccc1O [Example 1-16, methyl 5-({1-[(3R,4S)-4-cyanotetrahydro-2H-pyran-3-yl]-4-oxo-4,5-dihydro-1H-pyrazolo[4,3-c]pyridin-3-yl}amino)-2-hydroxybenzenecarboximidoate] | 0.36 nM | 5.04 nM |
| COc1cc(Nc2nn([C@H]3COCC[C@@H]3C#N)c3cc[nH]c(=O)c23)ccc1F [Example 1-17, (3R,4S)-3-{3-[(4-fluoro-3-methoxyphenyl)amino]-4-oxo-4,5-dihydro-1H-pyrazolo[4,3-c]pyridin-1-yl}tetrahydro-2H-pyran-4-carbonitrile] | 0.09 nM | 2.52 nM |
| N#C[C@H]1CCOC[C@@H]1n1nc(Nc2ccnc(F)c2)c2c(=O)[nH]ccc21 [Example 1-30, (3R,4S)-3-{3-[(2-fluoropyridin-4-yl)amino]-4-oxo-4,5-dihydro-1H-pyrazolo[4,3-c]pyridin-1-yl}tetrahydro-2H-pyran-4-carbonitrile] | 0.25 nM | 4.65 nM |
| N#Cc1ccc(Nc2nn([C@H]3COCC[C@@H]3C#N)c3cc[nH]c(=O)c23)cc1 [Example 1-31, (3R,4S)-3-{3-[(4-cyanophenyl)amino]-4-oxo-4,5-dihydro-1H-pyrazolo[4,3-c]pyridin-1-yl}tetrahydro-2H-pyran-4-carbonitrile] | 0.12 nM | 0.96 nM |
| N#Cc1ccc(Nc2nn([C@H]3COCC[C@@H]3C#N)c3cc[nH]c(=O)c23)cc1F [Example 1-32, (3R,4S)-3-{3-[(4-cyano-3-fluorophenyl)amino]-4-oxo-4,5-dihydro-1H-pyrazolo[4,3-c]pyridin-1-yl}tetrahydro-2H-pyran-4-carbonitrile] | 0.24 nM | 2.11 nM |
| Cc1cc(Nc2nn([C@H]3COCC[C@@H]3C#N)c3cc[nH]c(=O)c23)ccc1C(=O)N1CCC(F)(F)CC1 [Example 1-35, (3R,4S)-3-(3-((4-(4,4-difluoropiperidine-1-carbonyl)-3-methylphenyl)amino)-4-oxo-4,5-dihydro-1H-pyrazolo[4,3-c]pyridin-1-yl)tetrahydro-2H-pyran-4-carbonitrile] | 0.12 nM | 0.16 nM |

Second part, the compound after the results:

| IC50 (JAK1) | IC50 (JAK2) | SMILES |
| --- | --- | --- |
| 0.3 nM | 0.3 nM | CC(C)NC(C)(C)c1ccc(Nc2nn([C@H]3COCC[C@@H]3C#N)c3cc[nH]c(=O)c23)cc1 [Example 1-61, (3R,4S)-3-{3-[(4-{1-methyl-1-[(1-methylethyl)amino]ethyl}phenyl)amino]-4-oxo-4,5-dihydro-1H-pyrazolo[4,3-c]pyridin-1-yl}tetrahydro-2H-pyran-4-carbonitrile] |
| 0.05 nM | 0.29 nM | N#C[C@H]1CCOC[C@@H]1n1nc(Nc2ccc3c(c2)CN(CC(F)(F)F)S3(=O)=O)c2c(=O)[nH]ccc21 [Example 1-62, (3R,4S)-3-(3-{[1,1-dioxido-2-(2,2,2-trifluoroethyl)-2,3-dihydro-1,2-benzothiazol-5-yl]amino}-4-oxo-4,5-dihydro-1H-pyrazolo[4,3-c]pyridin-1-yl)tetrahydro-2H-pyran-4-carbonitrile] |
| 0.04 nM | 0.3 nM | CC(C)(C)OC(=O)CN1Cc2cc(Nc3nn([C@H]4COCC[C@@H]4C#N)c4cc[nH]c(=O)c34)ccc2S1(=O)=O [Example 1-64, tert-butyl [5-({1-[(3R,4S)-4-cyanotetrahydro-2H-pyran-3-yl]-4-oxo-4,5-dihydro-1H-pyrazolo[4,3-c]pyridin-3-yl}amino)-1,1-dioxido-1,2-benzisothiazol-2(3H)-yl]acetate] |
| 0.09 nM | 0.26 nM | CCC(C)(C)S(=O)(=O)c1ccc(Nc2nn([C@H]3COCC[C@@H]3C#N)c3cc[nH]c(=O)c23)cc1 [Example 1-65, (3R,4S)-3-[3-({4-[(1,1-dimethylpropyl)sulfonyl]phenyl}amino)-4-oxo-4,5-dihydro-1H-pyrazolo[4,3-c]pyridin-1-yl]tetrahydro-2H-pyran-4-carbonitrile] |
| 0.7 nM | 1.92 nM | CN(C)S(=O)(=O)c1ccc(Nc2nn([C@H]3COCC[C@@H]3C#N)c3cc[nH]c(=O)c23)cn1 [Example 1-67, 5-({1-[(3R,4S)-4-cyanotetrahydro-2H-pyran-3-yl]-4-oxo-4,5-dihydro-1H-pyrazolo[4,3-c]pyridin-3-yl}amino)-N,N-dimethylpyridine-2-sulfonamide] |
| 0.28 nM | 1.83 nM | Cc1ccc(Nc2nn([C@H]3COCC[C@@H]3C#N)c3cc[nH]c(=O)c23)cc1C [Example 1-68, (3R,4S)-3-{3-[(3,4-dimethylphenyl)amino]-4-oxo-4,5-dihydro-1H-pyrazolo[4,3-c]pyridin-1-yl}tetrahydro-2H-pyran-4-carbonitrile] |
| 0.08 nM | 0.3 nM | N#C[C@H]1CCOC[C@@H]1n1nc(Nc2ccc(S(=O)(=O)N3CCC3)cc2)c2c(=O)[nH]ccc21 [Example 1-69, (3R,4S)-3-(3-{[4-(azetidin-1-ylsulfonyl)phenyl]amino}-4-oxo-4,5-dihydro-1H-pyrazolo[4,3-c]pyridin-1-yl)tetrahydro-2H-pyran-4-carbonitrile] |
